Tests used:
KRAS G12V = KRAS G12V (Homo sapiens, UniProt P01116, G12V); assay: GDP-GTP exchange assay, KRAS G12V (bodipy-GDP/GppNHp, SOS1); type: biochemical; details: bodipy-loaded KRAS G12V 2.5 nM, 3 hours pre-incubation with inhibitor, SOS1 150 nM, GppNHp 500 uM; read-out: G12V_exchange (KRAS_G12V exchange assay IC50)
Protocol: (§1) The inhibitor potency of the exemplified compounds was determined in a fluorescence based guanine nucleotide exchange assay, which measures the exchange of bodipy-GDP (fluorescently labeled GDP) for GppNHp (Non-hydrolyzable GTP analog) to generate the active state of KRAS in the presence of SOS1 (guanine nucleotide exchange factor). Inhibitors were serially diluted in DMSO and a volume of 0.1 μL was transferred to the wells of a black low volume 384-well plate. Five μL/well volume of bodipy-loaded KRAS G12D or G12V diluted to a final concentration of 2.5 nM in assay buffer (25 mM Hepes pH 7.5, 50 mM NaCl, 10 mM MgCl2 and 0.01% Brij-35) was added to the plate and pre-incubated with inhibitor for 4 hours (G12D) or 3 hours (G12V) at ambient temperature. A cyclic peptide described to selectively bind G12D mutant (Sakamoto et al., BBRC 484.3 (2017), 605-611) or internal compounds with confirmed binding were used as positive controls in the assay plates. The exchange was initiated by the addition of a 5 μL/well volume containing 1 mM GppNHp and 300 nM SOS1 in assay buffer. The 10 μL/well reaction concentration of the bodipy-loaded KRAS G12D or G12V, GppNHp, and SOS1 were 2.5 nM, 500 uM, and 150 nM, respectively.
(§2) Either GraphPad prism or XLfit was used to analyze the data. The IC50 values were derived by fitting the data to a four parameter logistic equation producing a sigmoidal dose-response curve with a variable Hill coefficient. Prism equation: Y=Bottom+(Top−Bottom)/(1+10^((LogIC50-X)*Hill slope)); XLfit equation: Y=(A+((B−A)/(1+((X/C)^D)))) where X is the logarithm of inhibitor concentration and Y is the response.

KRAS G12D [1] = molecular target: T1, KRAS G12D (Homo sapiens, UniProt P01116, G12D); assay: KRAS_G12D pERK assay (cellular pERK HTRF assay); type: cell-based; parameters: host or cells: A427 or HPAF-II; details: KRAS G12D cells (A427, HPAF-II named in method), 2 hours incubation, Phospho-ERK 1/2 HTRF; read-out: G12D_PERK (KRAS_G12D pERK assay IC50)
Protocol: MIA PaCa-2 (KRAS G12C; ATCC® CRL-1420), A427 (KRAS G12D; ATCC® HTB53), HPAF-II (KRAS G12D; ATCC® CRL-1997) and NCI-H838 (KRAS WT; ATCC® CRL-5844) cells are purchased from ATCC and maintained in RPMI 1640 media supplemented with 10% FBS (Gibco/Life Technologies). The cells are plated at 5000 cells per well (8 uL) into Greiner 384-well low volume, flat-bottom, tissue culture treated white plates and incubated overnight at 37° C., 5% CO2. The next morning, test compound stock solutions are diluted in media at 3× the final concentration, and 4 uL are added to the cells. The plate is mixed by gentle rotation for 30 seconds (250 rpm) at room temperature. The cells are incubated with the KRAS G12C and G12D compounds for 4 hours or 2 hours respectively at 37° C., 5% CO2.
4 uL of 4× lysis buffer with blocking reagent (1:25) (Cisbio) are added to each well and plates are rotated gently (300 rpm) for 30 minutes at room temperature. 4 uL per well of Cisbio anti Phospho-ERK 1/2 d2 is mixed with anti Phospho-ERK 1/2 Cryptate (1:1) are added to each well, mixed by rotation and incubated overnight in the dark at room temperature. Plates are read on the Pherastar plate reader at 665 nm and 620 nm wavelengths. IC50 determination is performed by fitting the curve of inhibitor percent inhibition versus the log of the inhibitor concentration using the GraphPad Prism 7 software.

KRAS G12D [2] = molecular target: T1, KRAS G12D; assay: GDP-GTP exchange assay, KRAS G12D (bodipy-GDP/GppNHp, SOS1); type: biochemical; details: bodipy-loaded KRAS G12D 2.5 nM, 4 hours pre-incubation with inhibitor, SOS1 150 nM, GppNHp 500 uM; read-out: G12D_exchange (KRAS_G12D exchange assay IC50)
Protocol: as §1, §2

T1 sequence (P01116 1-188 isoform P01116-2 G12D): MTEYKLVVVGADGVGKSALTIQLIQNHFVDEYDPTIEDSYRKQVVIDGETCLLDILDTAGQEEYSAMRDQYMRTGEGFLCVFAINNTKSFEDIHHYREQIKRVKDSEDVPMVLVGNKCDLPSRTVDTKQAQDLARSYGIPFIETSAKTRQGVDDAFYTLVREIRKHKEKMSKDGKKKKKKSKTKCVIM
KRAS G12V, sequence (P01116 1-188 isoform P01116-2 G12V): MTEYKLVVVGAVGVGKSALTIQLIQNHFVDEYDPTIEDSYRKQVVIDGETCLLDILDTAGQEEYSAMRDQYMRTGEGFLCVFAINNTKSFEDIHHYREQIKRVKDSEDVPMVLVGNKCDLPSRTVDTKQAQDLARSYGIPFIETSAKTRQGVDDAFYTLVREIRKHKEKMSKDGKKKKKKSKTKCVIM

Row | IC50 (KRAS G12V) | IC50 (KRAS G12D [1]) | IC50 (KRAS G12D [2]) | Structure (SMILES)
1 | ≤ 100 nM | 5000 to 10000 nM | ≤ 100 nM | N#CCCc1cc2c3c(cnc2c(F)c1-c1cc(O)cc2ccccc12)NC(=O)CN3[C@@H]1[C@@H]2CN[C@H]1C2 (racemic) [Example 20a, 3-(1-((endo)-2-Azabicyclo[2.1.1]hexan-5-yl)-7-fluoro-8-(3-hydroxynaphthalen-1-yl)-3-oxo-1,2,3,4-tetrahydropyrazino[2,3-c]quinolin-9-yl)propanenitrile]
2 | 100 to 1000 nM | 5000 to 10000 nM | ≤ 100 nM | Cc1cc2c(nc(O[C@@H](C)[C@@H]3CCCN3C)c3c(=O)c(Nc4cnn(C)c4)cn([C@H]4[C@H]5CN[C@@H]4C5)c32)c(F)c1-c1cccc2c1C(C#N)CCC2 (single isomer, unassigned) [Example 26b]
3 | ≤ 100 nM | 1000 to 5000 nM | ≤ 100 nM | N#CCCc1cc2c3c(c(OC[C@@]45CCCN4C[C@H](F)C5)nc2c(F)c1-c1cc(O)cc2ccccc12)NC(=O)CN3C1C2CNC1C2 (single isomer, unassigned) [Example 10b]
4 | ≤ 100 nM | 1000 to 5000 nM | ≤ 100 nM | CC1Cc2c(OC[C@@H]3CCCN3C)nc3c(F)c(-c4cc(O)cc5ccccc45)c(CCC#N)cc3c2N(C2C3CNC2C3)C1 (single isomer, unassigned) [Example 14b]

Source: patent US12030883B2, “Hetero-tricyclic compounds as inhibitors of KRAS” (Incyte Corporation, priority 2021, dated 2024)
